Source: patent US20220098203A1 (priority 2018, published 2022)
pIC50: −log10 of the molar value. Like-named read-outs stand apart in the source and are kept apart here.

Target: T1, MAT2A homodimer (Homo sapiens, UniProt P31153)
T1 construct: inferred from the Ni sepharose purification and imidazole elution; made in house; host or cells: SF9 insect cells, recombinant baculovirus (Bac to Bac, pFASTBAC1)
Experiment: MAT2A biochemical assay (liberated phosphate, PiColorLock Gold)
Conditions: read-out: Enzyme Inhibition
Procedure: Mat2A protein was expressed by recombinant baculovirus in SF9 infected cells using the Bac to Bac system cloned into the pFASTBAC1 vector (Invitrogen, Carlsbad, Calif.). Recombinant MAT2A was isolated from the cell lysate of 150 g of infected cells using HP Ni sepharose column chromatography. Recombinant MAT2A homodimer was eluted with 250 and 500 mM imidazole, and fractions containing MAT2A were identified by sodium dodecyl sulfate polyacrylamide gel electrophoresis and pooled.
Test compound was prepared in 100% dimethyl sulfoxide (DMSO) at 50× the desired final concentration. A 1 μL volume of compound dilution was added to 40 μL of enzyme dilution and the mixture was allowed to equilibrate for 60 minutes at 25° C. The enzymatic assay was initiated by the addition of 10 μL of substrate mix (500 μM ATP, pH 7.0, 400 μM L-methionine in 1× assay buffer), and the mixture was incubated for a further 60 minutes at 25° C. The reaction was halted and the liberated phosphate released by the enzyme in stoichiometric amounts by the production of S-adenosyl methionine (SAM) was measured using the PiColorLock Gold kit (Innova Biosciences, UK). Absolute product amounts were determined by comparison to a standard curve of potassium phosphate buffer, pH 8.0.

[1] = Table 5a, MAT2A biochemical assay

T1 sequence (P31153 whole entry): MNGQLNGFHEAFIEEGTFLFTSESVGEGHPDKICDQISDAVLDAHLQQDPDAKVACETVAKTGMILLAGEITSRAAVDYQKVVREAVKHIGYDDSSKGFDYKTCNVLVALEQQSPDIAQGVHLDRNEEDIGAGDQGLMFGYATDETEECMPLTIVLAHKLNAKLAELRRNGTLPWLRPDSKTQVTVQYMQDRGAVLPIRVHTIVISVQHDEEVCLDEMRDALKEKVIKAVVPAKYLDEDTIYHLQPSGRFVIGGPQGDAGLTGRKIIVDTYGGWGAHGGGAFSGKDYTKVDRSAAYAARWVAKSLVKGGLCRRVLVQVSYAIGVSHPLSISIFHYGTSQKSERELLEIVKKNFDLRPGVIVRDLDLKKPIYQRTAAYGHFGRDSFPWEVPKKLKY

pIC50 [1]	pIC50 (Table 5b, Additional Examples)	SMILES
6.00 to 7.00		COc1ccc(N2Cc3cnc(NCC(F)(F)F)nc3N(c3ccc(OC)cn3)C2=O)cc1 [Example 257, 3-(4-Methoxyphenyl)-1-(5-methoxypyridin-2-yl)-7-(2,2,2-trifluoroethylamino)-3,4-dihydropyrimido[4,5-d]pyrimidin-2(1H)-one]
6.00 to 7.00		COc1ccc(N2Cc3cnc(NCC(F)(F)F)nc3N(c3ccc(C4CC4O)cc3)C2=O)cc1 (stereo not shown) [Example 281, 1-(4-(2-hydroxycyclopropyl)phenyl)-3-(4-methoxyphenyl)-7-((2,2,2-trifluoroethyl)amino)-3,4-dihydropyrimido[4,5-d]pyrimidin-2(1H)-one]
6.00 to 7.00		COc1ccc(N2Cc3cnc(NCC(F)(F)F)nc3N(c3ccc(C(N)=O)cc3)C2=O)cc1 [Example 276, 4-(3-(4-methoxyphenyl)-2-oxo-7-((2,2,2-trifluoroethyl)amino)-3,4-dihydropyrimido[4,5-d]pyrimidin-1(2H)-yl)benzamide]
6.00 to 7.00		O=C1N(c2ccc3ncccc3c2)Cc2cnc(NCC(F)(F)F)nc2N1c1ccc(OC(F)F)cc1 [Example 227, 1-(4-(difluoromethoxy)phenyl)-3-(quinolin-6-yl)-7-((2,2,2-trifluoroethyl)amino)-3,4-dihydropyrimido[4,5-d]pyrimidin-2(1H)-one]
> 7.00		O=C1N(c2ccc3nccn3c2)Cc2cnc(NCC(F)(F)F)nc2N1c1ccc(-c2nc[nH]n2)cc1 [Example 222, 1-(4-(1H-1,2,4-triazol-3-yl)phenyl)-3-(imidazo[1,2-a]pyridin-6-yl)-7-((2,2,2-trifluoroethyl)amino)-3,4-dihydropyrimido[4,5-d]pyrimidin-2(1H)-one]
5.00 to 6.00		CCOc1cc2c(nn1)CN(c1ccc3nn(C)cc3c1)C(=O)N2c1ccc(OC(F)F)cc1 [Example 292, 5-(4-(difluoromethoxy)phenyl)-3-ethoxy-7-(2-methyl-2H-indazol-5-yl)-7,8-dihydropyrimido[5,4-c]pyridazin-6(5H)-one]
> 7.00		COc1ccc(N2C(=O)N(c3ccc4nncn4c3)Cc3cnc(NCC(F)(F)F)nc32)cc1 [Example 229, 3-([1,2,4]triazolo[4,3-a]pyridin-6-yl)-1-(4-methoxyphenyl)-7-((2,2,2-trifluoroethyl)amino)-3,4-dihydropyrimido[4,5-d]pyrimidin-2(1H)-one]
6.00 to 7.00		COc1ccc(N2Cc3cnc(NCC(F)(F)F)nc3N(c3ccc(-c4ccc[nH]c4=O)cc3)C2=O)cc1 [Example 279, 3-(4-methoxyphenyl)-1-(4-(2-oxo-1,2-dihydropyridin-3-yl)phenyl)-7-((2,2,2-trifluoroethyl)amino)-3,4-dihydropyrimido[4,5-d]pyrimidin-2(1H)-one]
6.00 to 7.00		COc1ccc(N2Cc3cnc(NCC(F)(F)F)nc3N(c3ccc(OC(F)F)nc3)C2=O)cc1 [Example 259]
5.00 to 6.00		O=C1N(c2ccnnc2)Cc2cnc(NCC(F)(F)F)nc2N1c1ccc(OC(F)F)cc1 [Example 224, 1-(4-(difluoromethoxy)phenyl)-3-(pyridazin-4-yl)-7-((2,2,2-trifluoroethyl)amino)-3,4-dihydropyrimido[4,5-d]pyrimidin-2(1H)-one]
5.00 to 6.00		COc1ccc(N2Cc3cnc(NCC(F)(F)F)nc3N(c3ccc(C#N)cc3)C2=O)cc1 [Example 251, 4-(3-(4-methoxyphenyl)-2-oxo-7-((2,2,2-trifluoroethyl)amino)-3,4-dihydropyrimido[4,5-d]pyrimidin-1(2H)-yl)benzonitrile]
5.00 to 6.00		COC1CCC(N2C(=O)N(c3ccc4nn(C)cc4c3)Cc3ccc(OCC(F)F)nc32)CC1 (stereo not shown) [Example 427, 7-(2,2-difluoroethoxy)-1-(4-methoxycyclohexyl)-3-(2-methyl-2H-indazol-5-yl)-1H,2H,3H,4H-pyrido[2,3-d]pyrimidin-2-one]
> 7.00		O=C1N(c2ccc3ncccc3c2)Cc2cnc(NCC(F)(F)F)nc2N1c1ccc(C2CC2)cc1 [Example 226, 1-(4-cyclopropylphenyl)-3-(quinolin-6-yl)-7-((2,2,2-trifluoroethyl)amino)-3,4-dihydropyrimido[4,5-d]pyrimidin-2(1H)-one]
> 7.00		Cn1cc2cc(N3Cc4cnc(NCC(F)(F)F)nc4N(c4ccc(Cl)cc4)C3=O)ccc2n1 [Example 263, 1-(4-chlorophenyl)-3-(2-methyl-2H-indazol-5-yl)-7-((2,2,2-trifluoroethyl)amino)-3,4-dihydropyrimido[4,5-d]pyrimidin-2(1H)-one]
6.00 to 7.00		COc1ccc(N2Cc3cnc(NCC(F)(F)F)nc3N(c3ccc(-c4cscn4)cc3)C2=O)cc1 [Example 210, 3-(4-methoxyphenyl)-1-(4-(thiazol-4-yl)phenyl)-7-((2,2,2-trifluoroethyl)amino)-3,4-dihydropyrimido[4,5-d]pyrimidin-2(1H)-one]
6.00 to 7.00		COc1ccc(N2Cc3cnc(NCC(F)(F)F)nc3N(c3cccc(OC)c3)C2=O)cc1 [Example 208, 1-(3-methoxyphenyl)-3-(4-methoxyphenyl)-7-((2,2,2-trifluoroethyl)amino)-3,4-dihydropyrimido[4,5-d]pyrimidin-2(1H)-one]

Continued, compound first:

SMILES	pIC50 [1]	pIC50 (Table 5b, Additional Examples)
Cn1cc2cc(N3Cc4ccc(OCC(F)F)nc4NC3=O)ccc2n1		< 5.00
COc1ccc(N2Cc3cnc(NCC4CC4)nc3N(c3ccccc3)C2=O)cc1		< 5.00
COc1ccc(N2Cc3cnc(NCC(F)(F)F)nc3N(c3cc4ccccc4s3)C2=O)cc1 [Example 200, 1-(benzo[b]thiophen-2-yl)-3-(4-methoxyphenyl)-7-((2,2,2-trifluoroethyl)amino)-3,4-dihydropyrimido[4,5-d]pyrimidin-2(1H)-one]	> 7.00	
COc1ccc(N2C(=O)N(c3ccc4nn(C)cc4c3)Cc3ccc(Nc4ccccc4)nc32)cc1		< 5.00
COc1ccc(N2Cc3cnc(NCC(F)(F)F)nc3N(c3ccc(C(=O)O)cc3)C2=O)cc1		< 5.00
CCOc1ccc2c(n1)N(c1ccc(OC)cc1)C(=O)N(c1ccc(NC)cc1)C2 [Example 121, 7-ethoxy-1-(4-methoxyphenyl)-3-(4-(methylamino)phenyl)-3,4-dihydropyrido[2,3-d]pyrimidin-2(1H)-one]	5.00 to 6.00	
COc1ccc(N2C(=O)N(c3ccc4nn(C)cc4c3)Cc3ccc(N4CCCC4)nc32)cc1 [Example 158, 1-(4-methoxyphenyl)-3-(2-methyl-2H-indazol-5-yl)-7-(pyrrolidin-1-yl)-3,4-dihydropyrido[2,3-d]pyrimidin-2(1H)-one]	6.00 to 7.00	
COc1ccc(N2Cc3cnc(NCC(F)(F)F)nc3N(c3ccc(C(=O)N(C)C)cc3)C2=O)cc1		6.00 to 7.00
CCOc1ccc2c(n1)N(c1ccc(OC(F)F)cc1)C(=O)N(c1ccnc(OC)c1)C2 [Example 111, 1-(4-(difluoromethoxy)phenyl)-7-ethoxy-3-(2-methoxypyridin-4-yl)-3,4-dihydropyrido[2,3-d]pyrimidin-2(1H)-one]	> 7.00	
COc1ccc(N2Cc3cnc(SC)nc3N(c3cccc(Br)c3)C2=O)cc1		< 5.00
Cn1cc2cc(N3Cc4ccc(OCC(F)F)nc4N(c4ccc5ncnn5c4)C3=O)ccc2n1 [Example 174, 1-([1,2,4]triazolo[1,5-a]pyridin-6-yl)-7-(2,2-difluoroethoxy)-3-(2-methyl-2H-indazol-5-yl)-3,4-dihydropyrido[2,3-d]pyrimidin-2(1H)-one]	6.00 to 7.00	
CCOc1ccc2c(n1)N(c1ccc(OC)cc1)C(=O)N(c1ccc(C(=O)NC)cc1)C2 [Example 126, 4-(7-ethoxy-1-(4-methoxyphenyl)-2-oxo-1,2-dihydropyrido[2,3-d]pyrimidin-3(4H)-yl)-N-methylbenzamide]	6.00 to 7.00	
CCOc1ccc2c(n1)N(c1ccc(OC)cc1)C(=O)N(c1ccc(C#N)cc1)C2 [Example 116, 4-(7-ethoxy-1-(4-methoxyphenyl)-2-oxo-1,2-dihydropyrido[2,3-d]pyrimidin-3(4H)-yl)benzonitrile]	5.00 to 6.00	
COc1ccc(N2Cc3cnc(NCC(F)(F)F)nc3N(c3ccc(CC(C)O)cc3)C2=O)cc1 (stereo not shown)		6.00 to 7.00
COc1ccc(N2Cc3cnc(NCC(F)(F)F)nc3N(c3ccc(-c4ccccc4)cc3)C2=O)cc1		< 5.00
COc1ccc(N2Cc3cnc(NCC(F)(F)F)nc3N(c3cccc(Br)c3)C2=O)cc1		< 5.00
CCOc1ccc2c(n1)N(c1ccc(C(F)(F)F)nc1)C(=O)N(c1ccc3nn(C)cc3c1)C2 [Example 150]	> 7.00	
CCOc1ccc2c(n1)N(c1ccc(C)nc1)C(=O)N(c1ccc3nn(C)cc3c1)C2 [Example 151, 7-ethoxy-3-(2-methyl-2H-indazol-5-yl)-1-(6-methylpyridin-3-yl)-3,4-dihydropyrido[2,3-d]pyrimidin-2(1H)-one]	6.00 to 7.00	
COc1ccc(N2Cc3cnc(NCC(F)(F)F)nc3N(c3ccc(SC)cc3)C2=O)cc1 [Example 198, 3-(4-methoxyphenyl)-1-(4-(methylthio)phenyl)-7-((2,2,2-trifluoroethyl)amino)-3,4-dihydropyrimido[4,5-d]pyrimidin-2(1H)-one]	> 7.00	
CCOc1ccc2c(n1)N(c1ccc(OC)cc1)C(=O)N(c1ccc(F)cc1)C2 [Example 117, 7-ethoxy-3-(4-fluorophenyl)-1-(4-methoxyphenyl)-3,4-dihydropyrido[2,3-d]pyrimidin-2(1H)-one]	6.00 to 7.00	
CCC(=O)c1ccc(N2C(=O)N(c3ccc(OC)cc3)Cc3cnc(NCC(F)(F)F)nc32)cc1 [Example 199, 3-(4-methoxyphenyl)-1-(4-propionylphenyl)-7-((2,2,2-trifluoroethyl)amino)-3,4-dihydropyrimido[4,5-d]pyrimidin-2(1H)-one]	6.00 to 7.00	
